From patent publication EP4778531A1, “MUSCLE RELAXANT ANTAGONIST FOR REVERSAL FOR BENZYLISOQUINOLINE MUSCLE RELAXANT” (priority 2023, dated 2025)

Test system: Wild-type AB strain zebrafish
Assay: Evaluation of compound-induced sensitization risk in zebrafish (tryptase OD, BAPNA)
Type: in vivo
Conditions: 500 ng/tail
Description: Wild-type AB strain zebrafish at 2 days post-fertilization (2 dpf) were randomly selected and placed in 24-well plates. Each group was with 6 replicate wells per group and 10 zebrafish per well. The following groups were set up: (1) Normal control group; (2) Positive control group (the used drug was mast cell sensitizer C48/80 at 1.5 µg/mL concentration); (3) Compound 1 (adamgammadex sodium) experimental group; (4) Compound 2 experimental group; (5) Compound 3 experimental group; (6) Compound 4 experimental group; (7) Compound 5 experimental group; (8) Compound 6 experimental group; (9) Compound 7 (sugammadex sodium) experimental group. In the experimental groups, Compound 1 was adamgammadex sodium, Compounds 2-6 were adamgammadex sodium analogues, and Compound 7 was sugammadex sodium. The volume of each well was 1 mL, and all experimental groups were treated with BAPNA (a specific detection reagent for mast cell degranulation) dissolved in water. Table 1: Structural Formulas of Compounds 1-7
After 1 day of treatment at 28°C, the liquid was transferred to a 96-well plate, with 200 µL/well. The relative absorbance (OD value) of tryptase expression levels in each experimental group was measured using a microplate reader. The OD value statistical analysis results were used to evaluate the sensitization risk of the samples. Statistical analysis was performed using SPSS software, with p < 0.05 indicating a significant difference. Sensitization risk (%) = (OD(Samplegroup)−OD(NormalControlgroup))/(OD (NormalControlgroup)) × 100% [formula]

Question: For Adamgammadex sodium [Compound 1], which “OD value (mean ± SE)” value (1 day at 28°C, relative absorbance of tryptase expression levels) is on record?
Answer: 0.060 ± 0.001

Question: What about the “Sensitization risk (%)” value (1 day at 28°C, vs normal control OD) of the same substance?
Answer: 11%

Question: And the “sensitization risk (in words)” value (conclusion from OD value)?
Answer: almost no sensitization risk
